Columns and labels:
[1] = system: Bacillus subtilis ATCC 6633; assay: In vitro antibacterial spectrum profile, zone of inhibition; format: cell-based; conditions: ATCC6633, 182 μg/ml, read-out: Inhib. Zone Diam.
[2] = system: Escherichia coli MB-1418; assay: as above; format: cell-based; conditions: MB1418, 182 μg/ml, read-out: Inhib. Zone Diam.
[3] = system: Xanthomonas vesicatoria MB-815; assay: as above; format: cell-based; conditions: MB815, 182 μg/ml, read-out: Inhib. Zone Diam.
[4] = system: Vibrio percolans ATCC 8461; assay: Bioassay, agar plate disc-diffusion method; conditions: 890A1 value defined as standard
[5] = system: Vibrio percolans resistant to ceph. C MB-2566; assay: In vitro antibacterial spectrum profile, zone of inhibition; format: cell-based; conditions: Comamonas terrigena, read-out: Inhib. Zone Diam.
[6] = system: Streptococcus faecalis MB-753; assay: as above; format: cell-based; conditions: Enterococcus faecalis, MB753; 182 μg/ml; read-out: Inhib. Zone Diam.
[7] = system: Proteus vulgaris (episome) MB-2112; assay: as above; format: cell-based; conditions: 182 μg/ml, read-out: Inhib. Zone Diam.
[8] = system: Staphylococcus aureus MB-698; assay: as above; format: cell-based; conditions: MB698, read-out: Inhib. Zone Diam.
[9] = system: Proteus vulgaris MB-1012; assay: as above; format: cell-based; conditions: MB1012, 182 μg/ml, read-out: Inhib. Zone Diam.
[10] = system: Vibrio percolans ATCC 8461; assay: as above; format: cell-based; conditions: Comamonas terrigena, ATCC8461; 182 μg/ml; read-out: Inhib. Zone Diam.
[11] = system: penicillinase; assay: Resistance to degradation by penicillinase; format: biochemical; conditions: compared with 890A1
Experimental: Bio-Gel fraction 63 is combined with fractions 61, 66 and 67 from the Bio-Gel column. These four combined fractions have a total of 235 absorbance units at 300 nm. To this is added 0.2 ml. of 1M Tris-HCl buffer, ph 7.5, and 0.2 ml. of penicillinase [Difco "Bacto-Penase," containing 500,000 units per ml. (1000 LU/ml.) wherein the term LU refers to Levy units; 1,000 LU will inactivate 500,000 units of penicillin G].
After 113 minutes at 23° C., an additional 0.2 ml. of penicillinase is added. After an additional 7 hours at room temperature, another 0.2 ml. of penicillinase is added, and after an additional two hours at room temperature, the reaction mixture is chilled in an ice bath. The terminated reaction mixture is diluted to 15 ml. by addition of 5 ml. of deionized water. The absorbance of the diluted reacted preparation is 6.3 at 300 nm of which 2.64 is extinguishable by reaction with cysteine.

[12] = Electrophoresis; format: physicochemical; conditions: neutral pH
[13] = system: Brucella bronchiseptica ATCC 4617; assay: microbe, parasite or virus in culture; format: cell-based; conditions: Bordetella bronchiseptica, ATCC4617, read-out: Inhib. Zone Diam.
[14] = system: Sarcina lutea ATCC 9341; assay: In vitro antibacterial spectrum profile, zone of inhibition; format: cell-based; conditions: Micrococcus luteus, ATCC9341; 182 μg/ml; read-out: Inhib. Zone Diam.
[15] = system: Serratia marcescens ATCC 990; assay: as above; format: cell-based; conditions: ATCC990, 182 μg/ml, read-out: Inhib. Zone Diam.
[16] = system: Salmonella gallinarum MB-1287; assay: as above; format: cell-based; conditions: Salmonella enterica, 182 μg/ml, read-out: Inhib. Zone Diam.
[17] = system: Klebsiella pneumoniae MB-1264; assay: as above; format: cell-based; conditions: MB1264, 182 μg/ml, read-out: Inhib. Zone Diam.
[18] = system: Corynebacterium pseudoidph. ATCC 9742; assay: as above; format: cell-based; conditions: ATCC9742, 182 μg/ml, read-out: Inhib. Zone Diam.
Experimental: (§1) The test to determine the antibiotic spectrum profile is carried out by application of a 0.015 ml. droplet on the surface of a 100×15 mm. petri plate containing 5 ml. of seeded nutrient agar and 0.2% yeast extract. The antibiotic 890A1 is tested at a level of 33 μg/ml. and the antibiotic 890A3 is tested at a level of 182 μg/ml.

[19] = system: Proteus vulgaris ATCC 21100; assay: as above; format: cell-based; conditions: ATCC21100, 182 μg/ml, read-out: Inhib. Zone Diam.
Experimental: as §1

[20] = system: Alcaligenes faecalis ATCC 213; assay: as above; format: cell-based; conditions: ATCC213, 182 μg/ml, read-out: Inhib. Zone Diam.
Experimental: as §1

[21] = system: Bacillus sp. MB-633; assay: as above; format: cell-based; conditions: SP.MB633, 182 μg/ml, read-out: Inhib. Zone Diam.
Experimental: as §1

[22] = system: Streptococcus agalactiae MB-2875; assay: as above; format: cell-based; conditions: MB2875, 182 μg/ml, read-out: Inhib. Zone Diam.
[23] = system: Vibrio percolans ATCC 8461 + 2 × 10^5 units/ml penicillinase; assay: In vitro antibacterial spectrum profile, zone of inhibition, with penicillinase; format: cell-based; conditions: Comamonas terrigena, ATCC8461, 182 μg/ml, read-out: Inhib. Zone Diam.
[24] = system: Streptococcus faecium MB-2820; assay: In vitro antibacterial spectrum profile, zone of inhibition; format: cell-based; conditions: Enterococcus faecium, MB2820; 182 μg/ml; read-out: Inhib. Zone Diam.
[25] = system: Escherichia coli ATCC 9637; assay: In vitro antibacterial spectrum profile, zone of inhibition, synthetic medium; format: cell-based; conditions: ATCC9637, 182 μg/ml, synthetic medium, read-out: Inhib. Zone Diam.
[26] = system: Pseudomonas stutzeri ATCC 11607; assay: In vitro antibacterial spectrum profile, zone of inhibition; format: cell-based; conditions: Stutzerimonas stutzeri, ATCC11607; 182 μg/ml; read-out: Inhib. Zone Diam.
[27] = system: Staphlococcus aureus ATCC 6538 P; assay: as above; format: cell-based; conditions: read-out: Inhib. Zone Diam.
[28] = system: Proteus mirabilis MB-3126; assay: as above; format: cell-based; conditions: MB3126, 182 μg/ml, read-out: Inhib. Zone Diam.
[29] = system: Pseudomonas aeruginosa MB-979; assay: as above; format: cell-based; conditions: MB979, 182 μg/ml, read-out: Inhib. Zone Diam.
[30] = system: Aerobacter aerogenes MB-835; assay: as above; format: cell-based; conditions: Klebsiella aerogenes, MB835; 182 μg/ml; read-out: Inhib. Zone Diam.
[31] = system: Pseudomonas aeruginosa MB-2824; assay: as above; format: cell-based; conditions: MB2824, 182 μg/ml, read-out: Inhib. Zone Diam.
[32] = system: Erwinia atroseptica ATCC 4466; assay: as above; format: cell-based; conditions: Pectobacterium atrosepticum, ATCC4466; 182 μg/ml; read-out: Inhib. Zone Diam.

## CC(=O)NCCSC1=C(C(=O)O)N2C(=O)C(C(C)O)C2C1 (centres unmarked) [Antibiotic 890A3]
[1]
  zone of inhibition at 182 µg/mL: 40 mm
[2]
  zone of inhibition at 182 µg/mL: 32 mm
[3]
  zone of inhibition at 182 µg/mL: 26 mm
[4]
  antibiotic potency: 31 units per HAEA300 unit
[5]
  zone of inhibition at 182 µg/mL: 34 mm
[6]
  zone of inhibition at 182 µg/mL: 17 mm
[7]
  zone of inhibition at 182 µg/mL: 38 mm
[8]
  zone of inhibition at 182 µg/mL: 34 mm
[9]
  zone of inhibition at 182 µg/mL: 24 mm
[10]
  zone of inhibition at 182 µg/mL: 40 mm
[11]
  resistance to degradation by penicillinase: relatively higher resistance
[12]
  movement on electrophoresis: acidic substance which moves to the positive pole on electrophoresis at neutral pH
[13]
  zone of inhibition at 182 µg/mL: 27 mm
[14]
  zone of inhibition at 182 µg/mL: 44 mm
[15]
  zone of inhibition at 182 µg/mL: 28 mm
[16]
  zone of inhibition at 182 µg/mL: 33 mm
[17]
  zone of inhibition at 182 µg/mL: 33 mm
[18]
  zone of inhibition at 182 µg/mL: 36 mm
[19]
  zone of inhibition at 182 µg/mL: 34 mm
[20]
  zone of inhibition at 182 µg/mL: 34 mm
[21]
  zone of inhibition at 182 µg/mL: 37 mm
[22]
  zone of inhibition at 182 µg/mL: 30 mm
[23]
  zone of inhibition at 182 µg/mL: 35 mm
[24]
  zone of inhibition at 182 µg/mL: 24 mm
[25]
  zone of inhibition at 182 µg/mL: 29 mm
[26]
  zone of inhibition at 182 µg/mL: 32 mm
[27]
  zone of inhibition at 182 µg/mL: 36 mm
[28]
  zone of inhibition at 182 µg/mL: 30 mm
[29]
  zone of inhibition at 182 µg/mL: 0 mm
[30]
  zone of inhibition at 182 µg/mL: 30 mm
[31]
  zone of inhibition at 182 µg/mL: 32 mm
[32]
  zone of inhibition at 182 µg/mL: 30 mm
